Data taken from US20240059691A1 (KALVISTA PHARMACEUTICALS LIMITED, priority 2020, published 2024).

Key:
Plasma Kallikrein = Plasma Kallikrein (Homo sapiens (Human), UniProt P03952); test: Determination of related protease inhibition: Plasma Kallikrein (fluorogenic substrate at Km); type: biochemical; settings: 25° C., read-out: IC50 (human PKal)
Method: Determination of Related Protease Inhibition
In vitro inhibition of related proteases was determined using an ([…] assay based on standard literature methods (see e.g. Shori et al., Biochem. Pharmacol., 1992, 43, 1209; Bouckaert et al., European Journal of Medicinal Chemistry 110 (2016) 181). Human serine protease enzymes Plasma Kallikrein, KLK1, FXa, Plasmin, Thrombin and Trypsin were assayed for enzymatic activity using an appropriate fluorogenic substrate at Km concentration, FXIa at fixed substrate concentration of 100 μM, and various concentrations of the test compound. Protease activity was measured by monitoring the accumulation of liberated fluorescence from the substrate over […]. The linear rate of fluorescence increase per minute was expressed as percentage (%) activity. IC50 values were calculated as the concentration of inhibitor giving 50% inhibition of the uninhibited enzyme activity (100%).

Human Factor XIIa = Human Factor XIIa (Homo sapiens (Human), UniProt P00748); test: Determination of FXIIa inhibition (fluorogenic substrate H-DPro-Phe-Arg-AFC, IC50 assay); type: biochemical; settings: substrate H-DPro-Phe-Arg-AFC at Km, 25° C.; class scale A-G
Sequence of Human Factor XIIa (P00748 373-615): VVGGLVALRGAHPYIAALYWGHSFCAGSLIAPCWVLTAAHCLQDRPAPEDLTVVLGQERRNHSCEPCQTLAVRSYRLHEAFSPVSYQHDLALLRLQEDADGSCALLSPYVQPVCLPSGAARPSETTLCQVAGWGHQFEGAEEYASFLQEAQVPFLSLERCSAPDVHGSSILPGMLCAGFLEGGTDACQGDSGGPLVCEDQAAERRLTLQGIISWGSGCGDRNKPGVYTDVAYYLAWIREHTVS
How it was run: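 Human FXIIa incubated at 25° C with fluorogenic substrate H-DPro-Phe-Arg-AFC at its Km concentration and varying compound concentrations. Fluorescence release monitored over 5 min at 25° C; linear rate expressed as % of uninhibited activity to derive IC50.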

Sequence of Plasma Kallikrein (P03952 391-638): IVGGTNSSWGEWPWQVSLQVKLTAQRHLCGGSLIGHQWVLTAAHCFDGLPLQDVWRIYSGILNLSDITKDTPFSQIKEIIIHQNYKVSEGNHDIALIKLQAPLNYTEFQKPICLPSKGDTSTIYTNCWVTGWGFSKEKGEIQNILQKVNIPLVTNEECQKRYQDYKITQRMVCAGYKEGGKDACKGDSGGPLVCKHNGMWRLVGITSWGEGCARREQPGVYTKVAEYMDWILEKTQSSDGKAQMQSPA
Sequence of Plasma Kallikrein (P03952 20-390 partner): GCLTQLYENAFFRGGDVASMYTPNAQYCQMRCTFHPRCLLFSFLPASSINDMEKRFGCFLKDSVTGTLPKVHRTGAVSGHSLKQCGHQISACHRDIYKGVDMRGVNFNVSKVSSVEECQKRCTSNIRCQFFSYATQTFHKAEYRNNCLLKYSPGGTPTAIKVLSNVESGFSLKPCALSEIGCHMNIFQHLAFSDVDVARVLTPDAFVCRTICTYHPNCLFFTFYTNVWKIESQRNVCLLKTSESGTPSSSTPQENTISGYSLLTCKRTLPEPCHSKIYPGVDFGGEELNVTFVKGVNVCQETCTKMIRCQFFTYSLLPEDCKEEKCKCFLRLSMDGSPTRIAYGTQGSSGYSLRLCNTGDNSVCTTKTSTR

| SMILES | IC50 (Plasma Kallikrein) [µM] | IC50 (Human Factor XIIa) [µM] |
| --- | --- | --- |
| Nc1nccc2c(NCc3ccc(N4CCC(CC(F)F)C4)nc3)cccc12 (stereo not shown) [Example 1265, N5-((6-(3-(2,2-difluoroethyl)pyrrolidin-1-yl)pyridin-3-yl)methyl)isoquinoline-1,5-diamine] | > 40 | 3 to 10 |
| Nc1nccc2c(NCc3ccnc(OC4CCn5ccnc5C4)c3)cccc12 (stereo not shown) [Example 4306, 5-N-[(2-{5H,6H,7H,8H-imidazo[1,2-a]pyridin-7-yloxy}pyridin-4-yl)methyl]isoquinoline-1,5-diamine] | 10 to 40 | 1 to 3 |
| Nc1ncc(Cl)c2cc(NCc3ccnc(OCC4CCCn5ccnc54)c3)ccc12 (single isomer, unassigned) [Example 4450, (S*)-4-chloro-N6-((2-((5,6,7,8-tetrahydroimidazo[1,2-a]pyridin-8-yl)methoxy)pyridin-4-yl)methyl)isoquinoline-1,6-diamine] | 10 to 40 | 0.1 to 0.3 |
| Nc1nccc2c(NCc3ccc(N4CCn5ncc(CO)c5C4)nc3)cccc12 [Example 1269, (5-(5-(((1-aminoisoquinolin-5-yl)amino)methyl)pyridin-2-yl)-4,5,6,7-tetrahydropyrazolo[1,5-a]pyrazin-3-yl)methanol] | > 40 | 10 to 40 |
| Nc1ncc(Cl)c2cc(NCc3ccnc(OCC4CCCn5ccnc54)c3)ccc12 (stereo not shown) [Example 4443, 4-chloro-N6-((2-((5,6,7,8-tetrahydroimidazo[1,2-a]pyridin-8-yl)methoxy)pyridin-4-yl)methyl)isoquinoline-1,6-diamine] | > 40 | 0.1 to 0.3 |
| Nc1ncc(Cl)c2cc(NCc3ccnc(OC4CCn5ccnc5C4)c3)ccc12 (stereo not shown) [Example 4432, 4-chloro-6-N-[(2-{5H,6H,7H,8H-imidazo[1,2-a]pyridin-7-yloxy}pyridin-4-yl)methyl]isoquinoline-1,6-diamine] | > 40 | 1 to 3 |
| Nc1ncc(Cl)c2cc(NCc3ccnc(NCCC(=O)N4CCCC4)c3)ccc12 [Example 4428, 3-[(4-{[(1-amino-4-chloroisoquinolin-6-yl)amino]methyl}pyridin-2-yl)amino]-1-(pyrrolidin-1-yl)propan-1-one] | > 4 | 1 to 3 |
| Nc1ncc(Cl)c2cc(NCc3ccnc(NCC4CCn5ccnc5C4)c3)ccc12 (stereo not shown) [Example 4303, 4-chloro-6-N-{[2-({5H,6H,7H,8H-imidazo[1,2-a]pyridin-7-ylmethyl}amino)pyridin-4-yl]methyl}isoquinoline-1,6-diamine] | > 40 | 0.1 to 0.3 |
| COC(=O)c1c[nH]c2nccc(NCc3ccc(NCC4CCN(C)CC4)nc3)c12 [Example 1248, methyl 4-(((6-(((1-methylpiperidin-4-yl)methyl)amino)pyridin-3-yl)methyl)amino)-1H-pyrrolo[2,3-b]pyridine-3-carboxylate] | > 20 | 10 to 40 |
| CN1CCC(CNc2ccc(CNc3ccc4cncc(N5CCCCC5)c4c3)cn2)CC1 [Example 1198, N-((6-(((1-methylpiperidin-4-yl)methyl)amino)pyridin-3-yl)methyl)-4-(piperidin-1-yl)isoquinolin-6-amine] | > 40 | 40 to 100 |
| Cc1cc2c(NCc3ccc(NCC4CCN(C)CC4)nc3)cncc2[nH]1 [Example 1232, 2-Methyl-N-((6-(((1-methylpiperidin-4-yl)methyl)amino)pyridin-3-yl)methyl)-1H-pyrrolo[2,3-c]pyridin-4-amine] | 10 to 40 | 0.3 to 1 |
| CN1CCC(COc2cc(CNc3ccnc4[nH]ccc34)ccn2)CC1 [Example 4459, N-((2-((1-methylpiperidin-4-yl)methoxy)pyridin-4-yl)methyl)-1H-pyrrolo[2,3-b]pyridin-4-amine] | > 100 | 10 to 40 |
| Cc1n[nH]c2c1CCC2Nc1ccc(CNc2cccc3c(N)nccc23)cn1 (stereo not shown) [Example 1119, N5-((6-((3-methyl-1,4,5,6-tetrahydrocyclopenta[c]pyrazol-6-yl)amino)pyridin-3-yl)methyl)isoquinoline-1,5-diamine] | 10 to 40 | 10 to 40 |
| Nc1nccc2c(NCc3ccnc(OCC4CCn5ccnc5C4)c3)cccc12 (single isomer, unassigned) [Example 4430, (S*)-N5-((2-((5,6,7,8-tetrahydroimidazo[1,2-a]pyridin-7-yl)methoxy)pyridin-4-yl)methyl)isoquinoline-1,5-diamine] | > 4 | 0.01 to 0.1 |
| Nc1ncc(Cl)c2cc(NCc3ccc(OC4CCn5ccnc5C4)nc3)ccc12 (stereo not shown) [Example 1050, 4-chloro-6-N-[(6-{5H,6H,7H,8H-imidazo[1,2-a]pyridin-7-yloxy}pyridin-3-yl)methyl]isoquinoline-1,6-diamine] | > 40 | 1 to 3 |
| Cc1cn2c(n1)CC(COc1cc(CNc3ccc4c(N)ncc(Cl)c4c3)ccn1)CC2 (single isomer, unassigned) [Example 4442, (R*)-4-chloro-N6-((2-((2-methyl-5,6,7,8-tetrahydroimidazo[1,2-a]pyridin-7-yl)methoxy)pyridin-4-yl)methyl)isoquinoline-1,6-diamine] | 10 to 40 | 0.3 to 1 |
| Nc1ncc(Cl)c2cc(NCc3ccnc(OCC4CCn5ccnc5C4)c3)ccc12 (stereo not shown) [Example 4300, 4-Chloro-N6-[[2-(5,6,7,8-tetrahydroimidazo[1,2-a]pyridin-7-ylmethoxy)-4-pyridyl]methyl]isoquinoline-1,6-diamine] | 10 to 40 | 0.1 to 0.3 |
| Nc1nccc2c(NCc3ccc(N4Cc5nccn5C(CO)C4)nc3)cccc12 (stereo not shown) [Example 1133, (7-(5-(((1-aminoisoquinolin-5-yl)amino)methyl)pyridin-2-yl)-5,6,7,8-tetrahydroimidazo[1,2-a]pyrazin-5-yl)methanol] | > 40 | 3 to 10 |
| Nc1nccc2c(NCc3ccc(N4CCc5nccn5CC4)nc3)cccc12 [Example 1271, N5-((6-(5,6,8,9-tetrahydro-7H-imidazo[1,2-d][1,4]diazepin-7-yl)pyridin-3-yl)methyl)isoquinoline-1,5-diamine] | 10 to 40 | 0.3 to 1 |
| Nc1ncc(Cl)c2cc(NCc3cnc(OCC4CCn5ccnc5C4)nc3)ccc12 (stereo not shown) [Example 1052, 4-Chloro-N6-[[2-(5,6,7,8-tetrahydroimidazo[1,2-a]pyridin-7-ylmethoxy)pyrimidin-5-yl]methyl]isoquinoline-1,6-diamine] | > 40 | 0.3 to 1 |
| Cc1cc2c(NCc3ccnc(OCC4CCN(C)CC4)c3)ccnc2[nH]1 [Example 4465, 2-methyl-N-((2-((1-methylpiperidin-4-yl)methoxy)pyridin-4-yl)methyl)-1H-pyrrolo[2,3-b]pyridin-4-amine] | > 100 | 1 to 3 |
| Nc1nccc2c(N3CCCC3c3ccc(N4CCn5c(nnc5C(F)F)C4)nc3)cccc12 (stereo not shown) [Example 10001, 5-(2-(6-(3-(difluoromethyl)-5,6-dihydro-[1,2,4]triazolo[4,3-a]pyrazin-7(8H)-yl)pyridin-3-yl)pyrrolidin-1-yl)isoquinolin-1-amine] | > 40 | 1 to 3 |
| CN1CCC(CNc2ccc(CNc3ccnc4[nH]c(C(N)=O)cc34)cn2)CC1 [Example 1252, 4-(((6-(((1-methylpiperidin-4-yl)methyl)amino)pyridin-3-yl)methyl)amino)-1H-pyrrolo[2,3-b]pyridine-2-carboxamide] | > 40 | 10 to 40 |
| COc1cc(NCc2ccnc(OCC3CCN(C)CC3)c2)cc2ccncc12 [Example 4462, 8-methoxy-N-((2-((1-methylpiperidin-4-yl)methoxy)pyridin-4-yl)methyl)isoquinolin-6-amine] | > 100 | 3 to 10 |
| COc1cc(NCc2ccc(NCC3CCN(C)CC3)nc2)cc2ccncc12 [Example 1103, 8-methoxy-N-((6-(((1-methylpiperidin-4-yl)methyl)amino)pyridin-3-yl)methyl)isoquinolin-6-amine] | 10 to 40 | 10 to 40 |
| Cc1cnc2[nH]c(Cl)cc2c1NCc1ccc(NCC2CCN(C)CC2)nc1 [Example 1255, 2-chloro-5-methyl-N-((6-(((1-methylpiperidin-4-yl)methyl)amino)pyridin-3-yl)methyl)-1H-pyrrolo[2,3-b]pyridin-4-amine] | > 40 | 3 to 10 |
| CC(C)(O)[C@H]1CCN(c2ccc(CNc3cccc4c(N)nccc34)cn2)C1 [Example 1131, 2-[(3S)-1-[5-[[(1-Amino-5-isoquinolyl)amino]methyl]-2-pyridyl]pyrrolidin-3-yl]propan-2-ol] | 10 to 40 | 1 to 3 |
| Nc1nccc2c(NCc3ccc(N4CCn5ncc(O)c5C4)nc3)cccc12 [Example 1312, 5-(5-(((1-aminoisoquinolin-5-yl)amino)methyl)pyridin-2-yl)-4,5,6,7-tetrahydropyrazolo[1,5-a]pyrazin-3-ol] | > 40 | 3 to 10 |
| CN1CCC(CNc2ccc(CNc3ccc4[nH]cnc4c3F)cn2)CC1 [Example 1191, 4-fluoro-N-((6-(((1-methylpiperidin-4-yl)methyl)amino)pyridin-3-yl)methyl)-1H-benzo[d]imidazol-5-amine] | > 100 | – |
| Cc1cc(NCc2ccc(NCC3CCN(C)CC3)nc2)c2cc[nH]c2c1 [Example 1215, 6-methyl-N-((6-(((1-methylpiperidin-4-yl)methyl)amino)pyridin-3-yl)methyl)-1H-indol-4-amine] | > 100 | – |
